{"source": "patent US11833211B2", "about": "“Methods of suppression and treatment of disease comprising administering bicycle peptide ligands specific for EphA2” (BicycleTx Limited, priority 2017, dated 2023)", "key": {"[1]": {"target": "T1, human EphA2 (Homo sapiens, UniProt P29317)", "T1 construct": "EphA2 (Ecto); polyHis (C); purchased R&D systems (or In-house)", "T1 sequence (P29317 24-537 limits assumed)": "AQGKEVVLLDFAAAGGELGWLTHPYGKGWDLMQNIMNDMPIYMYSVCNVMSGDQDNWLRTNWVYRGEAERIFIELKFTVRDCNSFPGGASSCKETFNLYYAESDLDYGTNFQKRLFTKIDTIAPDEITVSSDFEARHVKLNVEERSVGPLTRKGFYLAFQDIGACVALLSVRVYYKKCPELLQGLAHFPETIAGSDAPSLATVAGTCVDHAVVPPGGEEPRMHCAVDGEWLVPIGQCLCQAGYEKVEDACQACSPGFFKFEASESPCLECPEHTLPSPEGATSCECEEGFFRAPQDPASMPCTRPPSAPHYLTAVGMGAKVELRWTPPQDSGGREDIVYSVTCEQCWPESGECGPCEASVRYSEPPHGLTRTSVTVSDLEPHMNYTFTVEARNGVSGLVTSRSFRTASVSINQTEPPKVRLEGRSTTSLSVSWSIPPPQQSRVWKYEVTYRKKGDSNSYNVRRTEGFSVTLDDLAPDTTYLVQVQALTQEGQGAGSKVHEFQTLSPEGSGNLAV", "test": "Fluorescence polarisation competition binding assay (Study 1)"}, "[2]": {"system": "PC-3 xenograft", "test": "Study 8: in vivo efficacy in PC-3 xenograft", "set-up": "species or system Mus Musculus", "conditions": "15 mg/kg"}, "[3]": {"target": "T2, rat EphA2 (Rattus norvegicus, UniProt D3ZBN3)", "T2 construct": "polyHis (C); made in house", "T2 sequence (D3ZBN3 27-205)": "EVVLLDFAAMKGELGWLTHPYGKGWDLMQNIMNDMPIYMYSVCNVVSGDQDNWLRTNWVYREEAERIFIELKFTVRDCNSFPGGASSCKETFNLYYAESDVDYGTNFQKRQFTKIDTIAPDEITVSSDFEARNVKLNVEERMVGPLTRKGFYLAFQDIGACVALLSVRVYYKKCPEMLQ", "test": "Fluorescence polarisation competition binding, alternative protocol (Study 2)"}, "[4]": {"target": "T3, mouse EphA2 (Mus musculus, UniProt Q03145)", "T3 construct": "EphA2 (Ecto)", "T3 sequence (Q03145 26-538 limits assumed)": "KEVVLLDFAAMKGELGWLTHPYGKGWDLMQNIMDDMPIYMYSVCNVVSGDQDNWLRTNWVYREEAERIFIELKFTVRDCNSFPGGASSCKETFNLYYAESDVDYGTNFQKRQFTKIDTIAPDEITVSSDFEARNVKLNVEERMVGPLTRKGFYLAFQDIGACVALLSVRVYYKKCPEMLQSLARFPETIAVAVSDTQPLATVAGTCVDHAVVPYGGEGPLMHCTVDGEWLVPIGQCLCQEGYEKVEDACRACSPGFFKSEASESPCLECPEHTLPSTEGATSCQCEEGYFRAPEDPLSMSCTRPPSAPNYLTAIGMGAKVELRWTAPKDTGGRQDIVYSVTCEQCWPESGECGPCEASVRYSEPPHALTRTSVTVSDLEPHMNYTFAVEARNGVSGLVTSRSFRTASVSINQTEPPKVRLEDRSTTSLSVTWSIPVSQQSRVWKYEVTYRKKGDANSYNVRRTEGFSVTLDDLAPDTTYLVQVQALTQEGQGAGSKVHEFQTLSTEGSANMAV", "format": "binding"}}}
{"molecule": "COc1cc2cc(c1Cl)N(C)C(=O)C[C@@H](OC(=O)[C@@H](C)N(C)C(=O)CCSSC(C)CCC(=O)NCCC(=O)N(C)CC(=O)N(C)CC(=O)N(C)CC(=O)N(C)CC(=O)N(C)CC(=O)N(C)CC(=O)N(C)CC(=O)N(C)CC(=O)N(C)CC(=O)N(C)CC(=O)N[C@@H](C)C(=O)N[C@@H](CCCCNC(=N)N)C(=O)N[C@@H](CC(=O)O)C(=O)N[C@H]1CSCCC(=O)N3CN4CN(C3)C(=O)CCSC[C@H](NC(=O)[C@H](CC(C)C)NC(=O)[C@@H]3CCCN3C(=O)[C@H](CC(N)=O)NC(=O)[C@H](C(C)C)NC(=O)[C@H](CC(C)C)NC(=O)[C@@H]3C[C@@H](O)CN3C1=O)C(=O)N[C@@H](CC(C)C)C(=O)N[C@@H](Cc1c[nH]cn1)C(=O)N1CCC[C@H]1C(=O)N[C@H](CC(=O)O)C(=O)N[C@@H](Cc1c[nH]c3ccccc13)C(=O)N[C@@H](CCCCNC(=N)N)C(=O)N[C@H](C(N)=O)CSCCC4=O)[C@@]1(C)O[C@@H]1[C@@H](C)[C@H]1C[C@](O)(NC(=O)O1)C(OC)/C=C/C=C(\\C)C2", "note": "(stereo partly drawn) [BCY6028]", "values": [{"measurement": "competition binding in the EphA2 competition binding assay (in words)", "setting": "[1]", "value": "excellent competition binding"}]}
{"molecule": "CC(=O)O[C@@]12CO[C@@H]1C[C@H](O)[C@@]1(C)C(=O)[C@H](O)C3=C(C)[C@@H](OC(=O)[C@H](O)[C@@H](NC(=O)OC(C)(C)C)c4ccccc4)C[C@@](O)([C@@H](OC(=O)c4ccccc4)[C@H]21)C3(C)C", "note": "[Docetaxel]", "values": [{"measurement": "body weight", "setting": "[2]; after the first dosing", "value": "severe animal body weight loss"}, {"measurement": "anti-tumor activity (in words)", "setting": "[2]; qw", "value": "significant anti-tumor activity"}, {"measurement": "tumor relapse after ceasing the treatment", "setting": "[2]; qw", "value": "obvious tumor relapse"}]}
{"molecule": "(β-Ala)-Sar10-A(HArg)D-Ci(HyP)LVNPLCiiLHP(D-Asp)W(HArg)Ciii [BCY6099]", "values": [{"measurement": "affinity to rat EphA2 (in words)", "setting": "[3]", "value": "high affinity"}, {"measurement": "affinity to mouse EphA2 (in words)", "setting": "[4]", "value": "high affinity"}]}
